From US10294262B2, “7-deazapurine nucleosides for therapeutic uses” (Institute of Organic Chemistry and Biochemistry ASCR, V.V.I., priority 2009, dated 2019)
Like-named read-outs stand apart in the source and are kept apart here.

Legend:
HCT116 = experiment: Test A: Cytostatic cell culture assay (CC50), SRB, solid tumor cell lines; type: cell-based; settings: Homo sapiens, HCT-116, 120 h, read-out: CC50 Colon HCT116
Experimental: (§1) Gemcitabine is obtained from Moravek Biochemicals (Brea, Calif.)
(§2) • 1. […] Fix one plate of each cell line with TCA. […] Discard TCA from the plates by flicking them gently. […] Store the plates at room temperature. These plates represent cell counts on day zero. • 4. […] Add 50 μL of the diluted compounds per well. […] Fix the plates with TCA. […] Discard TCA from the plates by flicking them gently. […] Leave at room temperature for 30 minutes. • 9. Flick the plates gently to discard SRB.

Du145 = experiment: as above; type: cell-based; settings: Homo sapiens, DU-145, 120 h, read-out: CC50 Prostate Du145
Experimental: as §1, §2

NCI H23 = experiment: as above; type: cell-based; settings: Homo sapiens, NCI-H23, 120 h, read-out: CC50 Lung NCI H23
Experimental: as §1, §2

HS578 = experiment: as above; type: cell-based; settings: Homo sapiens, Hs578, 120 h, read-out: CC50 Breast HS578
Experimental: as §1, §2

human tumor cell lines = experiment: Tests A and B, all tumor cell lines together; type: cell-based; settings: read-out: CC50 Geometric mean all
Experimental: as §2
Plates were incubated for 5 days with tested compounds.

[1] = test system: MT-4 T-lymphoid cell line; experiment: Test B: Cytostatic cell culture assay (CC50), CellTiter Glo, lymphoid tumor cell lines; settings: Homo sapiens, MT4, 120 h, read-out: CC50 T-lymphoid MT-4
Experimental: Test B: Cytostatic Cell Culture Assay (CC50) for Lymphoid Tumor Cell Lines
This test is typically performed with cell lines that are derived from hematological tumors and grow in suspension. An example of such cell line is human MT-4 T-lymphoid cell line used for the determination of cytostatic activity of tested compounds. […] Cells were passaged in suspension twice a week and maintained at densities below 500,000 cells/mL. For CC50 determination, cells were seeded into 384-well plates at 2,000 cells/well in 20 μL of culture medium. Compounds were serially diluted in culture medium and added in triplicate to a final assay volume of 40 μL/well. Plates were incubated for 5 days with tested compounds. At the end of incubation, cell viability was determined by addition of 40 μL of CellTiter Glo reagent followed by a luminescence read-out.
Data analysis and CC50 value calculations were done using GraphPad Prism software (GraphPad Software, San Diego, Calif.) by applying nonlinear regression.

BT549 = experiment: Test A: Cytostatic cell culture assay (CC50), SRB, solid tumor cell lines; type: cell-based; settings: Homo sapiens, BT-549, 120 h, read-out: CC50 Breast BT549
Experimental: as §1, §2

PC3 = experiment: as above; type: cell-based; settings: Homo sapiens, PC-3, 120 h, read-out: CC50 Prostate PC3
Experimental: as §1, §2

A549 = experiment: as above; settings: Homo sapiens, A549, 120 h, read-out: CC50 Lung A549
Text: Test A: Cytostatic Cell Culture Assay (CC50) for Solid Tumor Cell Lines
This assay is based on quantification of cell mass determination by a colorimetric detection of the cell associated proteins. The assay relies on the ability of sulforhodamine B (SRB) to bind to protein components of cells that have been fixed to tissue-culture plates by trichloroacetic acid (TCA). SRB is a bright-pink aminoxanthene dye with two sulfonic groups that bind to basic amino-acid residues under mild acidic conditions, and dissociate under basic conditions. As the binding of SRB is stochiometric, the amount of dye extracted from stained cells is directly proportional to the cell mass.
Cell lines: All cell lines are obtained from ATCC (Manassas, Va.). Cultivation media containing Glutamax, and trypsin are purchased from Invitrogen (Carlsbad, Calif.). Doxorubicin, Tubercidin, Clofarabine, TCA and SRB are from Sigma-Aldrich (St. Louis, Mo.). Gemcitabine is obtained from Moravek Biochemicals (Brea, Calif.)
• 1. Trypsinize the sub-confluent cells, count them, and adjust the cell concentrations according to the cell counts listed in Table 1. • 2. Distribute the cells into the 96-well plates in 150 μL of media. Incubate the plates overnight in humidified CO2 incubator at 37° C. • 3. Fix one plate of each cell line with TCA. Discard the cultivation media from the plates by flicking them gently and add 100 μL cold 10% (vol/vol) TCA to each well. Incubate the plates at 4 degree refrigerator for 1 hour. Discard TCA from the plates by flicking them gently. Rinse plates four times in a washing basin containing tap water. Store the plates at room temperature. These plates represent cell counts on day zero. • 4. Prepare a set of medium solutions containing various concentrations of tested compounds by making 5-fold serial dilutions in 96-well plate. Add 50 μL of the diluted compounds per well. Include controls with untreated cells and cells treated with doxorubicin, tubercidin, clofarabine and/or gemcitabine. • 5. Incubate the plates for 5 days at 37° C. • 6. Fix the plates with TCA. Discard the cultivation media from the plates by flicking them gently and add 100 μL cold 10% (vol/vol) TCA to each well. Incubate the plates at 4 degree refrigerator for 1 hour. Discard TCA from the plates by flicking them gently. Rinse plates four times in a washing basin containing tap water. • 7. Remove excess water by tapping the plates face down, gently on a paper towel. Allow the plates to air-dry at room temperature. • 8. Add 100 μL of 0.057% SRB solution in 1% (vol/vol) acetic acid to each well of the plates fixed with TCA on day zero and five. Leave at room temperature for 30 minutes. • 9. Flick the plates gently to discard SRB. Rinse the plates four times with 1% (vol/vol) Acetic Acid. • 10. Store the plates at 37° incubator to facilitate faster drying. • 11. Once the plates are completely dry, add 200 μL of 10 mM Tris base solution (pH 10.5) to each well. Leave at room temperature for 30 minutes for SRB to solubilize. • 12. Measure the OD at 500 nm in a microplate reader. • 13. Calculate the percentage of cell-growth inhibition using the next formula: % of control cell growth=100×(ODsample−mean ODday0)/(ODneg control−mean ODday0). For CC50 determination, plot a dose-response curves between the compound concentration and percent of growth inhibition. CC50 values can be derived by fitting dose-response curves using sigmoidal dose response equation.

[2] = BT549 breast tumor cells, 5 days, SRB

Compound	CC50 (HCT116)	CC50 (Du145)	CC50 (NCI H23)	CC50 (HS578)	CC50 (human tumor cell lines)	CC50 [1]	CC50 (BT549; [2])	CC50 (PC3)	CC50 (A549)	CC50 (BT549)	melting point
CSc1ccc(-c2cn([C@@H]3O[C@H](CO)[C@@H](O)[C@H]3O)c3ncnc(N)c23)cc1 [Compound 2c, 4-Amino-5-[4-(methylthio)phenyl]-7-(β-D-ribofuranosyl)-7H-pyrrolo[2,3-d]pyrimidine]	1290 nM	1870 nM	390 nM	1970 nM	1520 nM	4400 nM					
Nc1ncnc2c1c(-c1cccc3ccccc13)cn2[C@@H]1O[C@H](CO)C(O)C1O (stereo partly drawn) [Compound 2d, 4-Amino-5-(naphtalen-1-yl)-7-(β-D-ribofuranosyl)-7H-pyrrolo[2,3-d]pyrimidine]	> 10000 nM	> 10000 nM	> 10000 nM	> 10000 nM	> 10000 nM						
Nc1ncnc2c1c(-c1ccc3ccccc3c1)cn2[C@@H]1O[C@H](CO)C(O)C1O (stereo partly drawn) [Compound 2e, 4-Amino-5-(naphtalen-2-yl)-7-(β-D-ribofuranosyl)-7H-pyrrolo[2,3-d]pyrimidine]	5670 nM	1050 nM	5350 nM	2160 nM	2880 nM						
Nc1ncnc2c1c(-c1ccoc1)cn2[C@@H]1O[C@H](CO)[C@@H](O)[C@H]1O [Compound 2h, 4-Amino-5-(furan-3-yl)-7-(β-D-ribofuranosyl)-7H-pyrrolo[2,3-d]pyrimidine]	15 nM	330 nM	198 nM	21 nM	78.1 nM	170 nM	28 nM	418 nM	34 nM		
Nc1ncnc2c1c(-c1ccsc1)cn2[C@@H]1O[C@H](CO)[C@@H](O)[C@H]1O [Compound 2i, 4-Amino-7-(β-D-ribofuranosyl)-5-(thiophen-3-yl)-7H-pyrrolo[2,3-d]pyrimidine]	7 nM	97 nM	73 nM	50 nM	60.7 nM	124 nM	28 nM	1320 nM	16 nM		
Nc1ncnc2c1c(-c1cc3ccccc3o1)cn2[C@@H]1O[C@H](CO)[C@@H](O)[C@H]1O [Compound 2j, 4-Amino-5-(benzofuran-2-yl)-7-(β-D-ribofuranosyl)-7H-pyrrolo[2,3-d]pyrimidine]	3740 nM		5400 nM	6730 nM	5540 nM	4800 nM		6290 nM	7020 nM	> 10000 nM	
Nc1ncnc2c1c(-c1cc[nH]c1)cn2[C@@H]1O[C@H](CO)[C@@H](O)[C@H]1O [Compound 2l, 4-Amino-5-(1H-pyrrol-3-yl)-7-(β-D-ribofuranosyl)-7H-pyrrolo[2,3-d]pyrimidine]	5.9 nM		33 nM	4.4 nM	11.4 nM	24 nM	8 nM	29 nM	5.3 nM		
Nc1ncnc2c1c(-c1cn[nH]c1)cn2[C@@H]1O[C@H](CO)[C@@H](O)[C@H]1O [Compound 2m, 4-Amino-5-(1H-pyrazol-4-yl)-7-(β-D-ribofuranosyl)-7H-pyrrolo[2,3-d]pyrimidine]	970 nM		144 nM	12 nM	81.9 nM	110 nM	50 nM	14 nM	192 nM		
Nc1ncnc2c1c(-c1cc[nH]n1)cn2[C@@H]1O[C@H](CO)[C@@H](O)[C@H]1O [Compound 2n, 4-Amino-5-(1H-pyrazol-3-yl)-7-(β-D-ribofuranosyl)-7H-pyrrolo[2,3-d]pyrimidine]	18 nM		35 nM	8 nM	17.1 nM	18 nM		15 nM			135 °C
C#Cc1cn([C@@H]2O[C@H](CO)[C@@H](O)[C@H]2O)c2ncnc(N)c12 [Compound 2o, 4-Amino-5-ethynyl-7-(β-D-ribofuranosyl)-7H-pyrrolo[2,3-d]pyrimidine]	2 nM		1 nM	1 nM	1.9 nM	1 nM		11 nM			
Nc1ncnc2c1c(-c1c[nH]nn1)cn2[C@@H]1O[C@H](CO)[C@@H](O)[C@H]1O [Compound 2p, 4-Amino-7-(β-D-ribofuranosyl)-5-(1H-1,2,3-triazol-4-yl)-7H-pyrrolo[2,3-d]pyrimidine]	4 nM		4 nM	3 nM	5.2 nM	18 nM		5 nM			286 to 288 °C
Nc1ncnc2c1c(-c1nccs1)cn2[C@@H]1O[C@H](CO)[C@@H](O)[C@H]1O [Compound 2q, 4-Amino-7-(β-D-ribofuranosyl)-5-(thiazol-2-yl)-7H-pyrrolo[2,3-d]pyrimidine]	93 nM		5 nM	15 nM	25.6 nM	42 nM		42 nM			
Nc1ncnc2c1c(-c1c[nH]cn1)cn2[C@@H]1O[C@H](CO)[C@@H](O)[C@H]1O [Compound 2r, 4-Amino-5-(1H-imidazol-4-yl)-7-(β-D-ribofuranosyl)-7H-pyrrolo[2,3-d]pyrimidine]	3 nM		2 nM	2 nM	3.8 nM	28 nM		2 nM			
Nc1ncnc2c1c(-c1ncc[nH]1)cn2[C@@H]1O[C@H](CO)[C@@H](O)[C@H]1O [Compound 2s, 4-Amino-5-(1H-imidazol-2-yl)-7-(β-D-ribofuranosyl)-7H-pyrrolo[2,3-d]pyrimidine]	2 nM		6 nM	1 nM	3.8 nM	49 nM		1 nM			153 to 156 °C
C[C@@]1(O)[C@H](O)[C@@H](CO)O[C@H]1n1cc(-c2ccccc2)c2c(N)ncnc21 [Compound 7a, 4-Amino-7-(2-C-methyl-β-D-ribofuranosyl)-5-phenyl-7H-pyrrolo[2,3-d]pyrimidine]											129 °C
COc1ccc(-c2cn([C@@H]3O[C@H](CO)[C@@H](O)[C@@]3(C)O)c3ncnc(N)c23)cc1 [Compound 7b, 4-Amino-5-(4-methoxyphenyl)-7-(2-C-methyl-β-D-ribofuranosyl)-7H-pyrrolo[2,3-d]pyrimidine]											127 °C
COc1cccc2c1C(=O)c1c(O)c3c(c(O)c1C2=O)C[C@@](O)(C(=O)CO)C[C@@H]3O[C@H]1C[C@H](N)[C@H](O)[C@H](C)O1 [Doxorubicine, reference compound]	11 nM		5 nM	6 nM	10.1 nM		10 nM	21 nM	16 nM		
